Assay results as given in patent US20250268920A1, “USE OF ANDROGEN RECEPTOR-MEDIATED MECHANISMS IN THE TREATMENT OF ACUTE MYELOID LEUKEMIA” (The Penn State Research Foundation, priority 2022, published 2025).
Read-outs that look alike come from different tables or passages of the source.

Legend:
female AML cells = test: In vitro apoptosis of female AML cells (Annexin V staining); assay type: cell-based, mouse; conditions: Annexin V staining (FIG. 4B, 4C)
Source text: (§1) To obtain the results shown in FIG. 1, we isolated bone marrow cells from CD45.1 male mice (FIG. 1A) and CD45.1 female mice (FIG. 1B). Bone marrow cells were applied to hematopoietic stem/progenitor cell isolation using a kit (EasySep™ mouse hematopoietic progenitor cell isolation kit, […], Catalog #19856) followed by red blood cell lysis. Lineage negative (Lin^−) cells were stained with fluorescent antibodies including Sca-1 and c-Kit and then sent to a Beckman Coulter MoFlo Astrios EQ Cell Sorter for sorting Sca-1^+c-Kit^+ cells. These cells were cultured in a CO2 incubator at 37° C. in the presence of MLL-AF9 virus (for AML) for six hours and then injected retro-orbitally into CD45.2 recipient mice. Recipients received sublethal irradiation (475 rads) and 1.5˜3.5×10^5 Lin^−Sca-1^+c-Kit^+ hematopoietic stem cells (HSCs). Mice were monitored for complete cell counts by bleeding retro-orbitally one month post transplantation. Retro-orbital bleeding was performed weekly.
(§2) To obtain the results, isolated female AML cells were treated in vitro with PI3K inhibitors (LY294002 and Wortmannin), Akt inhibitor, MTOR inhibitors (Sapanisertib and Torin1).

female AML donor cells [1] = assay type: in vivo, mice
Source text: as §1
To test the effect of AR inhibition on the outcome of AML, we utilized the AR antagonist, ARN509, to treat female mice transplanted with female AML donor cells. (FIG. 7A) Following one week post-secondary) (2° transplantation of AML cells from female donors into female recipients, the recipient mice were treated with ARN509 (0, 10, 25 mg/kg/d, i.p. injection) daily for two weeks.

female AML donor cells [2] = test: Survival of female recipients transplanted with female AML donors treated in vitro with ARN509; assay type: in vivo, mice; conditions: female AML donors treated in vitro with ARN509 150 nM, 24 h, transplanted into female recipients (FIG. 7J)
female AML donor cells [3] = assay type: in vivo, mice; remark: listed apart in the source
Source text: as §1
To address if ARN509 therapy preferentially benefitted AML in female mice, we performed an experiment in which male recipient mice transplanted with female AML donors cells were treated with AR antagonist, ARN509.
(FIG. 8A) Following one week post 2° transplantation of AML cells from female donors into male recipients, we treated the mice with ARN509 (0, 10, 25 mg/kg/d, i.p. injection) for two weeks.

female AML donor cells [4] = test: Survival of male recipients transplanted with female AML donors treated in vitro with ARN509; assay type: in vivo, mice; conditions: female AML donors treated in vitro with ARN509 150 nM, 24 h, transplanted into male recipients (FIG. 8J)
female AML donor cells [5] = test: In vivo ARN509 alone or combined with finasteride in male mice transplanted with female AML donor cells; conditions: single ARN509 10 mg/kg/d i.p. for two weeks; male recipients
Method: (FIG. 11A) At one week post 2° transplantation of female AML donors into male recipients, the mice were treated with vehicle (PBS), ARN509 (10 mg/kg/d, i.p. injection), or combination of ARN509 (10 mg/kg/d, i.p. injection) and finasteride (20 mg/kg/d, i.p. injection), for two weeks.

P70 S6K = test: In vitro treatment of female AML cells: phosphorylation of downstream target P70 S6K; assay type: cell-based, mouse; conditions: isolated female AML cells treated in vitro (FIG. 4A)
Source text: as §1, §2

male AML donor cells = test: In vivo finasteride treatment of male mice transplanted with male AML donor cells; conditions: for Survival: male AML donors (FIG. 10J)
Source text: as §1
(FIG. 10A) Upon 2° transplantation of male AML donors to male recipients, the recipient mice were treated with vehicle (PBS) or finasteride (50 mg/kg/d, i.p. injection) for one week. Then at three weeks post transplantation, mice were euthanized. […] Moreover, to observe the therapeutic effect of finasteride, we treated male recipients transplanted with male AML donors (mirroring the clinical patients) with in vivo finasteride for two weeks or extended it to four weeks (FIG. 10I). […] Thus, the disclosure includes adjusting the treatment period for male (and female) AML patients.

female AML donor cells [6] = test: In vivo finasteride treatment of female mice transplanted with female AML donor cells
Method: To mirror the patient scenario, we performed the experiment on female recipients transplanted with female AML donor cells.
(FIG. 12A) At one week after 2° transplantation of female AML donors to female recipients, we treated the mice with vehicle (PBS) or finasteride (20 mg/kg/d, i.p. injection) for two weeks.

[7] = finasteride 50 mg/kg/d i.p. for one week, male recipients
[8] = finasteride 20 mg/kg/d i.p. for two weeks, female recipients

## CNC(=O)c1ccc(N2C(=S)N(c3cnc(C#N)c(C(F)(F)F)c3)C(=O)C23CCC3)cc1F [ARN509, Apalutamide]
Female AML cells
  Apoptosis of female AML cells: led to apoptosis of female AML cells
Female AML donor cells [1]; 25 mg/kg/d ARN509, female recipients (FIG. 7D)
  Lin− leukemic cells in the bone marrow: decreased significantly
Female AML donor cells [1]; 25 mg/kg/d ARN509, female recipients (FIG. 7E)
  Lin− leukemic cells in the spleen: decreased significantly
Female AML donor cells [1]; 25 mg/kg/d ARN509, female recipients (FIG. 7F, 7G)
  LICs (leukemia-initiating cells): decreased significantly
Female AML donor cells [1]; ARN509 0, 10, 25 mg/kg/d i.p. daily for two weeks from one week post transplantation, female recipients
  Severity of AML: decreased the severity of AML in a dose-dependent manner
Female AML donor cells [1]; ARN509 0, 10, 25 mg/kg/d i.p., two weeks, female recipients (FIG. 7B)
  Leukocytosis: improved leukocytosis
Female AML donor cells [1]; ARN509 0, 10, 25 mg/kg/d i.p., two weeks, female recipients (FIG. 7C)
  Splenomegaly: improved
Female AML donor cells [1]; mouse, in vivo
  Platelets in the peripheral blood: increase
  Side effects: no apparent side effects
Female AML donor cells [2]
  Survival: significantly better survival
Female AML donor cells [3]; 25 mg/kg/d ARN509, male recipients (FIG. 8D)
  Lin− leukemic cells in the bone marrow: decreased significantly
Female AML donor cells [3]; 25 mg/kg/d ARN509, male recipients (FIG. 8E)
  Lin− leukemic cells in the spleen: decreased significantly
Female AML donor cells [3]; 25 mg/kg/d ARN509, male recipients (FIG. 8F, 8G)
  LICs (leukemia-initiating cells): decreased significantly
Female AML donor cells [3]; ARN509 0, 10, 25 mg/kg/d i.p. for two weeks from one week post transplantation, male recipients
  Severity of AML: decreased the severity of AML in a dose-dependent manner
Female AML donor cells [3]; ARN509 0, 10, 25 mg/kg/d i.p., two weeks, male recipients (FIG. 8B)
  Leukocytosis: improved leukocytosis
Female AML donor cells [3]; ARN509 0, 10, 25 mg/kg/d i.p., two weeks, male recipients (FIG. 8C)
  Splenomegaly: improved
Female AML donor cells [3]; mouse, in vivo
  Body weight: unchanged
  Platelets in the peripheral blood: increase
  Side effects: no apparent side effects
Female AML donor cells [4]
  Survival: some improvement of survival
Female AML donor cells [5]
  Anti-leukemic effect: not able to induce significant anti-leukemic effect

## CCC(=O)N1CCN(c2ccc(-n3c(=O)ccc4cnc5ccc(-c6cnc7ccccc7c6)cc5c43)cc2C(F)(F)F)CC1 [Torin1]
P70 S6K
  Phosphorylation of the downstream target P70 S6K: down-regulated
Female AML cells
  Apoptosis of female AML cells: induced apoptosis of female AML cells significantly

## CC(C)(C)NC(=O)[C@H]1CC[C@H]2[C@@H]3CC[C@H]4NC(=O)C=C[C@]4(C)[C@H]3CC[C@]12C [finasteride, Finasteride]
Male AML donor cells; finasteride 50 mg/kg/d i.p. for one week, euthanized three weeks post transplantation (FIG. 10B)
  Generation of DHT: decreased generation of DHT
Male AML donor cells; [7]
  LICs in the bone marrow: decreased
  LICs in the spleen: decreased
  Lin− leukemic cells in the bone marrow: decreased
  Lin− leukemic cells in the spleen: decreased
Male AML donor cells; finasteride 50 mg/kg/d i.p. for one week, male recipients (FIG. 10C)
  Leukocytosis: significantly improved
Male AML donor cells; finasteride 50 mg/kg/d i.p. for one week, male recipients (FIG. 10D)
  Splenomegaly: significantly improved
Male AML donor cells; four-week in vivo finasteride treatment, male recipients
  Survival: significantly improved the survival
Male AML donor cells; two-week in vivo finasteride treatment, male recipients
  Survival: partially benefited the survival
Female AML donor cells [6]; finasteride 20 mg/kg/d i.p. for two weeks from one week after transplantation, female recipients (FIG. 12B)
  Leukocytosis: significantly improve
Female AML donor cells [6]; [8]
  LICs in the bone marrow: decreased
  LICs in the spleen: decreased
  Lin− leukemic cells in the bone marrow: decreased
  Lin− leukemic cells in the spleen: decreased
Female AML donor cells [6]; finasteride 20 mg/kg/d i.p. for two weeks, female recipients (FIG. 12C)
  Splenomegaly: significantly improve
Female AML donor cells [6]; in vivo finasteride treatment, female recipients, female AML donors (FIG. 12K)
  Survival: benefitted the survival
